Columns and labels:
[1] = calcein dye release assay (lytic potential); format: biochemical; conditions: 5-100 μM, 1-20 mol % ligand; LUVs containing 120 mM calcein
Procedure: Calix[4]arene tetrabutylamide 2 may transport ions across LUVs by inducing membrane defects, by uniport of ions, or via cotransport of ion pairs ([…], M^− or OH^−/A^− antiport and H^+/A^− or M^+/OH^− symport mechanisms are possible). The lytic potential of 2 was evaluated using a dye release assay. The self-quenching dye calcein loses 95% of its fluorescence emission at concentrations above 100 mM. 2.
EYPC Calcein-Containing Vesicles: Calcein (224.1 mg, 0.36 mmol) was suspended in 3 mL of phosphate buffer (100 mM NaCl, 10 mM sodium phosphate, pH 6.4). The pH of the solution was adjusted to 6.4 with a 7.4 M NaOH-containing phosphate buffer, at which point all the calcein was dissolved to give a 120 mM solution of the dye. The molality of the extravesicular buffer was adjusted to equal that of the calcein-containing solution with 1 m NaCl. Osmomolality was determined by VPO. A thin film was prepared from 60 mg of EYPC ([…]) as described above. The lipid film was hydrated in 1.2 mL of the calcein buffer. During hydration, the suspension was submitted to five freeze-thaw cycles (dry ice in acetone, water at room temperature) and then submitted to high-pressure extrusion (2) extrusions through a 0.1 μm polycarbonate membrane afforded LUVs with an average diameter of 100 nm). […]

[2] = pH-stat fluorescent transport assay with oligophenoxyacetamides (HPTS-loaded liposomes); format: biochemical
Procedure: FIGS. 1A and 1B are derived from of pH-stat fluorescent assays with oligophenoxyacetamide compounds 1-6 described herein. Suspensions of EYPC LUVs containing the pH sensitive dye pyranine (ex 405 nm and 460 nm em 510 nm) in a phosphate buffer were used (0.5 mM of lipid, 10 mM NanH3-nPO4 n=1, 2, pH 6.4 100 mM NaCl inside and outside) (A) illustrates initial pseudo-first order rate constants in the presence of 5 μm of ionophores 1-6 (1 mol % injection of 20 μl of 0.5 mM DMSO solution of 1-6 into 1.9 mL of vesicular suspension was followed by injection of 21 μl of 0.5 M NaOH and final lysis of liposomes with Triton X-100; (B) illustrates initial pseudo-first order rate constants assessed for various concentrations of oligomeric ionophores 2-6. The same experimental protocol as in (A) was used. Legend for traces denotes use of oligocompounds 2, 3, 4, 5, 6.
Liposome Preparation for Fluorimetric Assays. Egg yolk L-α-phosphatidylcholine (EYPC ethanol solution, […], 79 μmol) was dissolved in a CHCl3/MeOH mixture, the solution was evaporated under reduced pressure and the resulting thin film was dried under high vacuum for 2 h. The lipid film was hydrated in 1.2 mL of phosphate buffer (10 mM sodium phosphate, pH=6.4, 75-100 mM MnX, M=N^+, K^+, X=Cl^−, SO4^2−, n=1,2) containing 10 μM HPTS (pyranine, 8-hydroxypyrene-1,3,6-trisulfonic acid trisodium salt) for 40 min. During hydration, the suspension was submitted to 5 freeze-thaw cycle (liquid nitrogen, water at rt). The large multilamellar liposome suspension (1 mL) was submitted to high-pressure extrusion at rt (21 extrusions through a 0.1 μm polycarbonate membrane afforded a suspension of LUVs with an average diameter of 100 nm). The LUV suspension was separated from extravesicular dye by size exclusion chromatography (SEC) (stationary phase: Sephadex G-10, mobile phase: phosphate buffer) and diluted with the same phosphate buffer to give a stock solution with a lipid concentration of 11 mM (assuming 100% of lipid was incorporated into liposomes).
pH-state transport assays. Typically, 100 μL of HPTS-loaded vesicles (stock solution) was suspended in 1.9 mL of the corresponding buffer and placed into a fluorimetric cell. The emission of HPTS at 510 nm was monitored with excitation wavelengths at 403 and 460 nm simultaneously. During the experiment, 20 μL of a 0-10 mM DMSO solution of the compounds of interest was added (through an injection port), followed by injection of 21 μL of 0.5 M aqueous NaOH. […] Maximal possible changes in dye emission were obtained at the end of each experiment by lysis of the liposomes with detergent (40 μL of 5% aqueous Triton X100). The final transport trace was obtained as a ratio of the emission intensities monitored at 460 and 403 nm and normalized to 100% of transport. Pseudo-first order rate constants were calculated from slopes of the plot of In([H^+ins]−[H^+out]) versus time, here [H^+ins] and [H^+out] are the intravesicular and extravesicular proton concentrations, respectively. The [H^+out] was assumed to remain constant over the course of the experiment, while [H^+ins] values were calculated for each point from the HPTS emission intensities according to the calibration equation pH=1.1684·log(Io/Il)+6.9807, where Io is the emission intensity with excitation at 460 nm and Il is emission intensity with excitation at 403 nm. The calibration was performed by measuring the HPTS emission intensities and the pH values of a […] HPTS solution in 10 mM phosphate buffer containing 100 mM NaCl (see FIG. s3). The absolute values for rate constants varied depending on the age of the vesicular solution and the actual stock solution of liposomes used.

| calcein fluorescence (membrane defects) [1] | Compound | relative transport activity within the series 1-6 ([2]; 100 mM NaCl inside and outside) | transport activity ([2]; 100 mM NaCl inside and outside, concentrations as low as 0.5 mol % (5 μm)) | transport activity in liposomes symmetrically loaded with sodium sulfate ([2]; 10 mol % (50 μm)) |
| --- | --- | --- | --- | --- |
| no fluorescence enhancement | CCCCNC(=O)COc1c2cccc1Cc1cccc(c1OCC(=O)NCCCC)Cc1cccc(c1OCC(=O)NCCCC)Cc1cccc(c1OCC(=O)NCCCC)C2 [calix[4]arene tetrabutylamide 2, Calix[4]arene tetrabutylamide] | – | – | – |
| – | CCCCNC(=O)COc1ccccc1Cc1cccc(Cc2ccccc2OCC(=O)NCCCC)c1OCC(=O)NCCCC [trimer 3, Tris-(N-butyl-2-phenoxyacetamide)] | generally the most active | rapid exchange between extra- and intravesicular electrolytes | no transport activity was detected |
